Laboratory results reported in the NIST ThermoML archive (doi:10.1016/j.fluid.2014.04.003).
± gives the expanded uncertainty stated by the source.

Conditions: Crystal; DTA

Normal melting temperature: 139.26 ± 0.39 °C
SMILES: CC(C)Cc1ccc([C@H](C)C(=O)O)cc1.CCCCCCCCNC[C@H](O)[C@@H](O)[C@H](O)[C@H](O)CO [S-ibuprofen n-octyl-d-glucamine salt]
